{"source": "patent US9492468B2", "about": "“Methods and compositions for treatment of acute heart failure” (PERICOR THERAPEUTICS, INC., priority 2008, dated 2016)", "key": {"NT-ProBNP": {"system": "NT-ProBNP", "experiment": "Plasma NT-proBNP (competitive ELISA), dose escalation study", "assay_type": "in vivo, dog", "protocol": "(§1) Eight heart failure dogs described in Example 1 were used. Seven of 8 dogs underwent two studies, one with active drug GP-531 tartrate and one with vehicle (placebo) and 1 of 8 dogs underwent only one active drug GP-531 study. The order of active drug and placebo was randomized and performed about one week apart. In 6 of 8 dogs, after baseline hemodynamic, and ventriculographic measurements, vehicle was administered as a continuous intravenous infusion for one hour. At the end of one hour, the active drug GP-531 tartrate was administered in 3 escalating dose of continuous intravenous infusion with each dose maintained for one hour. At the end of the last drug dose, infusion was stopped and a washout period of one hour was instituted. The same infusion rates and times between doses were used when vehicle studies were performed. At the end of each hour, hemodynamic and angiographic measurements were made. Venous blood samples were obtained at baseline and at one hour after each dose. Blood samples (at least 10 mL) were centrifuged at 3000 rpm for 10 minutes and plasma withdrawn and placed in cryostorage tubes and stored upright at −20° C. for future use. In 2 of 8 dogs, active drug was administered as bolus followed by a constant infusion for 3 hours as noted below.\nPlasma biomarkers were measured in Groups I and II. Troponin I (TnI) was determined in plasma based on the principle of the double antibody sandwich enzyme-linked immunosorbent assay (ELISA) (Hirano, T., et al., Immunol Today 1990, 11:443-449) and n-terminal brain natriuretic peptide (NT-pro-BNP) based on competitive ELISA (Bonow, R. O. Circulation 1996, 93:1946-1950). Both biomarkers were assayed using commercially available assay kits. Kits for NT proBNP and TnI were purchased from ALPCO Diagnostics, Salem, N.H. Using standard curves and software, the concentration of each biomarker was expressed as ng/ml for TnI and fmol/ml for NT-proBNP."}, "[1]": {"system": "dogs with advanced heart failure", "experiment": "Dose escalation / bolus plus infusion study, hemodynamic and ventriculographic measures", "assay_type": "in vivo, dog", "conditions": "for Effect on EF (LVEF) / Effect on ESV: dose dependent; for Hemodynamic and ventriculographic benefits after discontinuation: one hour after discontinuation of infusion", "protocol": "Studies were performed in purpose-bred, healthy and conditioned mongrel dogs weighing between 20 and 30 kg. The study was approved by Henry Ford Health System Institutional Animal Care and Use Committee and conformed to the National Institute of Health “Guide and Care for Use of Laboratory Animals” and the “Position of the American Heart Association on Research Animal Use” (Position of the American Heart Association on Research Animal Use. Circulation 1985; 71; 49A-50A).\nChronic LV dysfunction and failure was produced by multiple sequential intracoronary embolizations with polystyrene Latex; coronary microembolizations were performed during cardiac catheterization under general anesthesia and sterile conditions (Sabbah H N, et al. Am J Physiol (1991) 260:H1379-84; Sabbah H N, et al. Circulation (1994) 89:2852-9; Sabbah H N, et al. Am J Cardiol 99:41 A-46A, (2007)). Anesthesia was induced using a combination of intravenous injections of oxymorphone hydrochloride (0.22 mg/kg) and diazepam (0.2-0.6 mg/kg). Plane of anesthesia was maintained throughout the study using 1% to 2% isoflurane. Left and right heart catheterizations were performed via a femoral arteriotomy and venotomy. Coronary microembolizations were discontinued when LV ejection fraction, determined angiographically, was about 25%. A period of 2 weeks was allowed after the last microembolization to ensure that infarctions produced by the last microembolizations have completely healed and heart failure was established before the study is undertaken.\nas §1\nActive drug was used in dog groups as follows:\n1. In 3 of 8 dogs, escalating doses of 30, 100 and 300 μg/kg/min GP-531 tartrate were used (Group I)\n2. In another 3 of 8 dogs, escalating doses of 3, 10 and 30 μg/kg/min GP-531 tartrate were used (Group II).\n3. In 1 of 8 dogs, active drug was administered as 700 μg/kg GP-531 tartrate bolus followed by a constant infusion of 10 μg/kg/min GP-531 tartrate for 3 hours.\n4. In another 1 of 8 dogs, two active drug studies were performed. In one study, active drug was administered as 70 μg/kg bolus followed by a constant infusion of 1.0 μg/kg/min for 4 hours and in the second study, active drug was administered as 210 μg/kg bolus followed by a constant infusion of 3.0 μg/kg/min for 4 hours.\nStudy Primary End-Points were: (1) change in LV ejection fraction determined from ventriculography and (2) change in LV end-systolic and end-diastolic volume determined from ventriculography.\nAll hemodynamic measurements were made during left and right heart catheterizations in anesthetized dogs at each specified study time point. […]"}, "[2]": {"conditions": "1 HF dog, 210 μg/kg bolus then 3.0 μg/kg/min for 4 h"}, "[3]": {"conditions": "1 HF dog, 210 μg/kg bolus then 3.0 μg/kg/min, end of 4 h"}, "[4]": {"conditions": "1 HF dog, 700 μg/kg bolus then constant infusion 10 m/kg/min (so in the source) for 3 h"}, "[5]": {"conditions": "1 HF dog, 700 μg/kg bolus then constant infusion 10 m/kg/min (so in the source), end of 3 h"}, "[6]": {"conditions": "Group I HF dogs n=3, 1 h washout after 30/100/300 μg/kg/min"}, "[7]": {"conditions": "Group I HF dogs n=3, escalating 30, 100, 300 μg/kg/min, vs baseline"}, "[8]": {"conditions": "Group I HF dogs n=3, escalating 30, 100, 300 μg/kg/min, vs baseline, listed as GP-531 tartrate salt"}, "[9]": {"conditions": "Group II HF dogs n=3, 1 h washout after 3/10/30 μg/kg/min"}, "[10]": {"conditions": "Group II HF dogs n=3, escalating 3, 10, 30 μg/kg/min, not statistically significant vs baseline"}, "[11]": {"conditions": "Group II HF dogs n=3, escalating 3, 10, 30 μg/kg/min, vs baseline"}}, "note": "Structures can show the parent of a compound that is named as a salt."}
{"smiles": "NC(=O)c1ncn(C2OC(CNCc3ccccc3)C(O)C2O)c1N", "note": "(centres unmarked) [GP-531 tartrate]", "values": [{"measurement": "Effect on plasma NT-Pro-BNP", "setting": "NT-ProBNP; Group I HF dogs, all doses (30, 100, 300 μg/kg/min), vs baseline", "result": "decreased significantly"}, {"measurement": "Effect on plasma NT-proBNP", "setting": "NT-ProBNP; Group II HF dogs, 3, 10, 30 μg/kg/min, significance only at 30 μg/kg/min", "result": "tended to decrease with escalating doses"}, {"measurement": "Effect on CO", "setting": "[1]; [2]", "result": "minimal or modest changes"}, {"measurement": "Effect on HR", "setting": "[1]; [2]", "result": "modest reduction"}, {"measurement": "Effect on LVEDP", "setting": "[1]; [2]", "result": "modest reduction"}, {"measurement": "Effect on SV", "setting": "[1]; [2]", "result": "minimal or modest changes"}, {"measurement": "Effect on SVR", "setting": "[1]; [2]", "result": "minimal or modest changes"}, {"measurement": "Effect on mAoP", "setting": "[1]; [2]", "result": "modest reduction"}, {"measurement": "Effect on EDV", "setting": "[1]; [3]", "result": "essentially no change"}, {"measurement": "Increase in EF", "setting": "[1]; [3]", "result": 44, "unit": "%"}, {"measurement": "Reduction in ESV", "setting": "[1]; [3]", "result": "~20", "unit": "%"}, {"measurement": "Effect on CO", "setting": "[1]; [4]", "result": "minimal or modest changes"}, {"measurement": "Effect on HR", "setting": "[1]; [4]", "result": "modest reduction"}, {"measurement": "Effect on LVEDP", "setting": "[1]; [4]", "result": "substantial drop"}, {"measurement": "Effect on SV", "setting": "[1]; [4]", "result": "minimal or modest changes"}, {"measurement": "Effect on SVR", "setting": "[1]; [4]", "result": "minimal or modest changes"}, {"measurement": "Effect on mAoP", "setting": "[1]; [4]", "result": "modest reduction"}, {"measurement": "Increase in EF", "setting": "[1]; [5]", "result": 30, "unit": "%"}, {"measurement": "Reduction in EDV", "setting": "[1]; [5]", "result": "~10", "unit": "%"}, {"measurement": "Reduction in ESV", "setting": "[1]; [5]", "result": 20, "unit": "%"}, {"measurement": "Cardiac output (CO)", "setting": "[1]; [6]", "result": "1.72 ± 0.17", "unit": "L/min"}, {"measurement": "Heart rate (HR)", "setting": "[1]; [6]", "result": "85 ± 7", "unit": "beats/min"}, {"measurement": "LV end-diastolic pressure (LVEDP)", "setting": "[1]; [6]", "result": "13 ± 1", "unit": "mmHg"}, {"measurement": "LV end-diastolic volume (EDV)", "setting": "[1]; [6]", "result": "70 ± 5", "unit": "mL"}, {"measurement": "LV end-systolic volume (ESV)", "setting": "[1]; [6]", "result": "49 ± 4", "unit": "mL"}, {"measurement": "Mean aortic pressure (mAoP)", "setting": "[1]; [6]", "result": "73 ± 6", "unit": "mmHg"}, {"measurement": "Stroke volume (SV)", "setting": "[1]; [6]", "result": "20 ± 2", "unit": "mL"}, {"measurement": "Systemic vascular resistance (SVR)", "setting": "[1]; [6]", "result": "3445 ± 310", "unit": "dynes-sec-cm^−5"}, {"measurement": "Effect on CO", "setting": "[1]; [7]", "result": "significant increase"}, {"measurement": "Effect on EDV", "setting": "[1]; [7]", "result": "modest and not statistically significant effect on reducing"}, {"measurement": "Effect on HR", "setting": "[1]; [7]", "result": "no effect"}, {"measurement": "Effect on LVEDP", "setting": "[1]; [7]", "result": "significantly decreased"}, {"measurement": "Effect on SV", "setting": "[1]; [7]", "result": "significant increase"}, {"measurement": "Effect on SVR", "setting": "[1]; [7]", "result": "decrease"}, {"measurement": "Effect on mAoP", "setting": "[1]; [7]", "result": "no effect"}, {"measurement": "Effect on EF (LVEF)", "setting": "[1]; [7]", "result": "increased"}, {"measurement": "Effect on ESV", "setting": "[1]; [7]", "result": "significantly decreased"}, {"measurement": "Effect on EF (LVEF)", "setting": "[1]; [8]", "result": "increase"}, {"measurement": "Effect on ESV", "setting": "[1]; [8]", "result": "significant decrease"}, {"measurement": "Hemodynamic and ventriculographic benefits after discontinuation", "setting": "[1]; Group I HF dogs", "result": "attenuated but in many instances remained significantly better than baseline values"}, {"measurement": "Cardiac output (CO)", "setting": "[1]; [9]", "result": "1.50 ± 0.02", "unit": "L/min"}, {"measurement": "Heart rate (HR)", "setting": "[1]; [9]", "result": "80 ± 5", "unit": "beats/min"}, {"measurement": "LV end-diastolic pressure (LVEDP)", "setting": "[1]; [9]", "result": "12 ± 1", "unit": "mmHg"}, {"measurement": "LV end-diastolic volume (EDV)", "setting": "[1]; [9]", "result": "59 ± 4", "unit": "mL"}, {"measurement": "LV end-systolic volume (ESV)", "setting": "[1]; [9]", "result": "40 ± 2", "unit": "mL"}, {"measurement": "Mean aortic pressure (mAoP)", "setting": "[1]; [9]", "result": "66 ± 3", "unit": "mmHg"}, {"measurement": "Stroke volume (SV)", "setting": "[1]; [9]", "result": "19 ± 2", "unit": "mL"}, {"measurement": "Systemic vascular resistance (SVR)", "setting": "[1]; [9]", "result": "3511 ± 176", "unit": "dynes-sec-cm^−5"}, {"measurement": "Effect on CO", "setting": "[1]; [10]", "result": "modestly increased"}, {"measurement": "Effect on SV", "setting": "[1]; [10]", "result": "modestly increased"}, {"measurement": "Effect on SVR", "setting": "[1]; [10]", "result": "modestly decreased"}, {"measurement": "Effect on EDV", "setting": "[1]; [11]", "result": "no effects"}, {"measurement": "Effect on HR", "setting": "[1]; [11]", "result": "no effect"}, {"measurement": "Effect on LVEDP", "setting": "[1]; [11]", "result": "significantly decreased"}, {"measurement": "Effect on mAoP", "setting": "[1]; [11]", "result": "no effect"}, {"measurement": "Effect on EF (LVEF)", "setting": "[1]; [11]", "result": "increased"}, {"measurement": "Effect on ESV", "setting": "[1]; [11]", "result": "significantly decreased"}, {"measurement": "Effect on EF (LVEF)", "setting": "[1]; Group II HF dogs n=3, escalating 3, 10, 30 μg/kg/min, vs baseline, listed as GP-531 tartrate salt", "result": "increase"}, {"measurement": "Hemodynamic and ventriculographic benefits after discontinuation", "setting": "[1]; Group II HF dogs", "result": "attenuated but in many instances remained significantly better than baseline values"}, {"measurement": "Adverse positive chronotropic effects", "setting": "[1]; HF dogs, iv 3 to 300 μg/kg/min", "result": "not associated with any adverse positive chronotropic effects"}, {"measurement": "LV systolic function", "setting": "[1]; HF dogs, iv 3 to 300 μg/kg/min over at least one hour", "result": "can improve LV systolic function"}, {"measurement": "Effect on LVEF (FIG. 3)", "setting": "[1]; bolus injection 700 μg/kg followed by 3 hour constant infusion 10 μg/kg/min", "result": "increase"}]}
